These results are taken from patent publication US6579873B2, “3 (5)-heteroaryl substituted pyrazoles as p38 kinase inhibitors” (Pharmacia Corporation, priority 1997, dated 2003).

Data set [1] concerns the target T1, human p38 kinase alpha (Homo sapiens, UniProt Q16539).
T1 construct: The coding region of the human p38a cDNA was obtained by PCR-amplification from RNA; made in house; host or cells: E. coli DH10B
In words: p38 kinase in vitro assay, EGFRP phosphorylation (33P-ATP). In kind it is biochemical. Particulars: p38α in vitro results based on EGFRP assay procedure, read-out: p38α^2. How it is done: A second assay format was also employed that is based on p38 kinase alpha induced phosphorylation of EGFRP (epidermal growth factor receptor peptide, a 21 mer) in the presence of ^33P-ATP. Compounds were tested in 10 fold serial dilutions over the range of 100 μM to 0.001 μM in 1% DMSO. Each concentration of inhibitor was tested in triplicate. Compounds were evaluated in 50 μl reaction volumes in the presence of 25 mM Hepes pH 7.5, 10 mM magnesium acetate, 4% glycerol, 0.4% bovine serum albumin, 0.4 mM DTT, 50 μM unlabeled ATP, 25 μg EGFRP (200 μM), and 0.05 uCi gamma ^33P-ATP. Reactions were initiated by addition of 0.09 μg of activated, purified human GST-p38 kinase alpha. Activation was carried out using GST-MKK6 (5:1,p38:MKK6) for one hour at 30° C. in the presence of 50 μM ATP. Following incubation for 60 minutes at room temperature, the reaction was stopped by addition of 150 μl of AG 1×8 resin in 900 mM sodium formate buffer, pH 3.0 (1 volume resin to 2 volumes buffer). The mixture was mixed three times with pipetting and the resin was allowed to settle. A total of 50 μl of clarified solution head volume was transferred from the reaction wells to Microlite-2 plates. 150 μl of Microscint 40 was then added to each well of the Microlite plate, and the plate was sealed, mixed, and counted.

For data set [2], the system named is TNF production by U937 cells. In words: LPS stimulation of TNF production by U937 cells. The following applies: Homo sapiens, U-937, LPS-stimulated TNF-α release, differentiated U937 cells, 4 hour incubation. The data set is classed as cell-based. The method, then:
U937 cells (ATCC) were propagated in RPMI 1640 containing 10% Fetal bovine serum, 100 IU/ml penicillin, 100 μg/ml streptomycin, and 2 mM glutamine (Gibco). Fifty million cells in 100 ml media were induced to terminal monocytic differentiation by 24 hour incubation with 20 ng/ml phorbol 12-myristate 13-acetate (Sigma). The cells were washed by centrifugation (200×g for 5 min) and resuspended in 100 ml fresh medium. After 24-48 hours, the cells were harvested, centrifuged, and resuspended in culture medium at 2 million cells/ml.
U937 cells (0.1 ml, 2 million/ml) were incubated with 0.1 ml compound (0.004-50 μM, final concentration) for 1 hour in 96 well microtiter plates. Compounds were prepared as 10 mM stock solutions in DMSO and diluted in culture medium to yield a final DMSO concentration of 0.1% in the cell assay. LPS (E. coli, 100 ng/ml final concentration) was then added at a volume of 0.02 ml. After 4 hour incubation at 37° C., the amount of TNF-α released in the culture medium was quantitated by ELISA. Inhibitory potency is expressed as IC50 (μM).

Data set [3] has as its target T1, human p38 kinase alpha. In words: p38 kinase in vitro assay, PHAS-I phosphorylation (32P-ATP). The data set is classed as biochemical. Particulars: p38α in vitro results based on PHAS-I assay procedure, read-out: P38α^1. The method, then: The ability of compounds to inhibit human p38 kinase alpha was evaluated using two in vitro assay methods. In the first method, activated human p38 kinase alpha phosphorylates a biotinylated substrate, PHAS-I (phosphorylated heat and acid stable protein-insulin inducible), in the presence of gamma ^32P-ATP (^32P-ATP). PHAS-I was biotinylated prior to the assay and provides a means of capturing the substrate which is phosphorylated during the assay. p38 Kinase was activated by MKK6. Compounds were tested in 10 fold serial dilutions over the range of 100 μM to 0.001 μM using 1% DMSO. Each concentration of inhibitor was tested in triplicate.
All reactions were carried out in 96 well polypropylene plates. Each reaction well contained 25 mM HEPES pH 7.5, 10 mM magnesium acetate and 50 μM unlabeled ATP. Activation of p38 was required to achieve sufficient signal in the assay. Biotinylated PHAS-I was used at 1-2 μg per 50 μl reaction volume, with a final concentration of 1.5 μM. Activated human p38 kinase alpha was used at 1 μg per 50 μl reaction volume representing a final concentration of 0.3 μM. Gamma ^32P-ATP was used to follow the phosphorylation of PHAS-I. ^32P-ATP has a specific activity of 3000 Ci/mmol and was used at 1.2 μCi per 50 μl reaction volume. The reaction Proceeded either for one hour or overnight at 30° C.
Following incubation, 20 μl of reaction mixture was transferred to a high capacity streptavidin coated filter plate (SAM-streptavidin-matrix, Promega) prewetted with phosphate buffered saline. The transferred reaction mix was allowed to contact the streptavidin membrane of the Promega plate for 1-2 minutes. Following capture of biotinylated PHAS-I with ^32P incorporated, each well was washed to remove unincorporated ^32P-ATP three times with 2M NaCl, three washes of 2M NaCl with 1% phosphoric, three washes of distilled water and finally a single wash of 95% ethanol. Filter plates were air dried and 20 μl of scintillant was added. The plates were sealed and counted.

For data set [4], the system named is serum TNF. In words: Mouse model of LPS-induced TNF alpha production. The data set is classed as in vivo, BALB/c female mice. Particulars: percent inhibition of serum TNF, oral gavage 6 hours prior to LPS injection, mice. The method, then:
TNF alpha was induced in 10-12 week old BALB/c female mice by tail vein injection with 100 ng lipopolysaccharide (from S. Typhosa) in 0.2 ml saline. One hour later mice were bled from the retroorbital sinus and TNF concentrations in serum from clotted blood were quantified by ELISA. Typically, peak levels of serum TNF ranged from 2-6 ng/ml one hour after LPS injection.
The compounds tested were administered to fasted mice by oral gavage as a suspension in 0.2 ml of 0.5% methylcellulose and 0.025% Tween 20 in water at 1 hour or 6 hours prior to LPS injection. The 1 hour protocol allowed evaluation of compound potency at Cmax plasma levels whereas the 6 hour protocol allowed estimation of compound duration of action. Efficacy was determined at each time point as percent inhibition of serum TNF levels relative to LPS injected mice that received vehicle only.

T1 sequence (Q16539 whole entry): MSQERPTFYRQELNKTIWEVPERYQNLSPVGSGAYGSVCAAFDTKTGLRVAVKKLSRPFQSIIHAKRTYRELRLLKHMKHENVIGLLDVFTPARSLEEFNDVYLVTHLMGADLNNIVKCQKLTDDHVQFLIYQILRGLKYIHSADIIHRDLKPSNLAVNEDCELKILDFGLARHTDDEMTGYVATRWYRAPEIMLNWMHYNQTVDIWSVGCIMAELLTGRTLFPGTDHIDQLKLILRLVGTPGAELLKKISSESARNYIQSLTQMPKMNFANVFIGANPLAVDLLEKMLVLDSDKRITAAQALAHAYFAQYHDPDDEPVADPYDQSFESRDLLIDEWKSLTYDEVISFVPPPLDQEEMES

The compound `CS(=O)(=O)Nc1n[nH]c(-c2ccncc2)c1-c1ccc(F)cc1` [Example 3, N-[4 (4-fluorophenyl)-5-(4-pyridinyl)-1H-pyrazol-3-yl]methanesulfonamide] came in with a melting point of 168 to 170 °C. Further, in data set [1], the IC50 turned out to be 2.55 µM. In data set [2], this compound had an IC50 above 10 µM.
`Cn1nc(-c2ccncc2)c(-c2ccc(Cl)cc2)c1N` [Example 7, 4-(4-chlorophenyl)-1-methyl-3-(4-pyridinyl)-1H-pyrazol-5-amine] showed a melting point of 257 to 258 °C. Further, the IC50 in data set [1] amounted to 5.48 µM. The compound further came in with an IC50 in data set [2] of at least 10 µM.
As to “4-[2-[4-(4-fluorophenyl)-3-(4-pyridinyl)-1H-pyrazol-1-yl]ethyl]morpholine and 4-[2-[4-(4-fluorophenyl)-5-(4-pyridinyl)-1H-pyrazol-1-yl]ethyl]morpholine [Example 13]”, the IC50 in data set [3] is 860 nM.
With “4-(4-fluorophenyl)-N,N-dimethyl-3-(4-pyridinyl)-1H-pyrazole-1-ethanamine and 4-(4fluorophenyl)-N,N-dimethyl-5-(4-pyridinyl)-1H-pyrazole-1-ethanamine [Example 12]”, in data set [3], the IC50 amounted to 941 nM.
Compound `Cc1n[nH]c(-c2ccncc2)c1-c1ccccc1` [Example 1, 4-(3-methyl-4-phenyl-1H-pyrazol-5-yl)pyridine] registered a melting point of 164 to 165 °C. Also, the IC50 in data set [3] amounted to 30000 nM. Moreover, the IC50 in data set [1] stood at 13.3 µM. In data set [2], this compound showed an IC50 of at least 10 µM.
With `NC(=O)Nc1n[nH]c(-c2ccncc2)c1-c1ccc(F)cc1` [Example 5, [4-(4-fluorophenyl)-5-(4-pyridinyl)-1H-pyrazol-3-yl]urea], the IC50 was determined as 1980 nM in data set [3] and 5.53 µM in data set [2].
In the case of “4-(4-fluorophenyl)-3-(4-pyridinyl)-1H-pyrazole-1-ethanol and 4-(4-fluorophenyl)-5-(4-pyridinyl)-1H-pyrazole-1-ethanol [Example 11]”, in data set [3], the IC50 amounted to 695 nM.
Take `CNC(=O)Nc1n[nH]c(-c2ccncc2)c1-c1ccc(F)cc1` [Example 8, N-[4-(4-fluorophenyl)-5-(4-pyridinyl)-1H-pyrazol-3-yl]-N′-methylurea]: the melting point lay in the range of 212 to 213 °C. Moreover, the IC50 in data set [2] is at least 10 µM.
Take `Cn1cc(-c2ccc(F)cc2)c(-c2ccncc2)n1` [Example 10, 4-[4-(4-fluorophenyl)-1-methyl-1H-pyrazol-3-yl]pyridine]: in data set [4], the “mLPS (6 h @ (30 mpk))” value is on record as 76%. Also, the IC50 in data set [3] turned out to be 7230 nM; in data set [1], 0.4 µM; in data set [2] it was 1.6 µM.
Compound `Nc1n[nH]c(-c2ccncc2)c1-c1ccc(F)cc1` [Example 2, 4-(4-fluorophenyl)-5-(4-pyridinyl)-1H-pyrazol-3-amine] registered a melting point of 178 to 180 °C. For the same compound, the IC50 in data set [1] amounted to 6.21 µM. The same compound displayed an IC50 in data set [2] of 10.6 µM.
`Fc1ccc(-c2cn[nH]c2-c2ccncc2)cc1` [Example 9, 4-[4-(4-fluorophenyl)-1H-pyrazol-3-yl]pyridine]: the “mLPS (6 h @ (30 mpk))” value in data set [4] worked out at 42%. For the same compound, the results for the IC50 in data set [3], in data set [1] and in data set [2] were 2440 nM, 3.46 µM and 0.647 µM, respectively.
Regarding `CNS(=O)(=O)Nc1n[nH]c(-c2ccncc2)c1-c1ccc(F)cc1` [Example 4, N-[4-(4-fluorophenyl)-5-(4-pyridinyl)-1H-pyrazol-3-yl]-N′-methylsulfamide], the melting point lay in the range of 194 to 195 °C. Besides, the “mLPS (6 h @ (30 mpk))” value in data set [4] amounted to 54%. Also, the IC50 in data set [1] turned out to be 0.23 µM. This compound also returned an IC50 in data set [2] of 4.7 µM.
Take `Clc1ccc(-c2c[nH]nc2-c2ccncc2)cc1` [Example 15, 4-[4-(4-chlorcophenyl)-1H-pyrazol-3-yl]pyridine]: the “mLPS (6 h @ (30 mpk))” value in data set [4] was found to be 32%. Also, the IC50 in data set [3] worked out at 5900 nM; in data set [1] it was 0.75 µM.
